Data on 19 compounds can be found in patent publication US8518958B2, “Pyrido [2,3-D] pyrimidines and their use as kinase inhibitors” (Forma Therapeutics, Inc., priority 2006, dated 2013).

The target of assay [1] is C-Raf Raf-1 (truncated), active (Homo sapiens, UniProt P04049, Y340D/Y341D). The assay can be described thus: C-Raf kinase inhibition (MAPH assay / IMAP assay). The conditions noted are these: read-out: Biochemical IC50 C-Raf. An excerpt: We characterized the in vitro inhibitory activity against protein kinases of compounds of the present invention by determining their IC50 values (see Table 2).
Kinase: C-Raf Raf-1 (truncated), active (Upstate; cat. no. 14-352)
Reaction Temperature: room temperature
Assay Plate: 96 well U bottom plate (Greiner, 650161)
MultiScreen-PH Plate: 96 well MAPH Filter Plates (Millipore, MAPHNOB50)
Filter Washing Solution: 0.75% H3PO4
Scintillation Liquid: Supermix Liquid Scintillator (PerkinElmer, 1200-439)
Negative Control (C−): 100 mM EDTA, no inhibitor
Positive Control (C+): no inhibitor
Reaction Buffer (Final Concentration):
Final Assay Concentrations:
Kinase: Use kinase conc. yielding 10% ATP turnover as determined in titration experiment.
Adenosine 5′-[γ-^33P]triphosphate: 12.5 μCi/ml (Amersham Biosciences, BF1000)
Substrate: Myelin Basic Protein 57.8 μM (Invitrogen, 13228-010)
Pipetting Sequence: • 1) Add 10 μl 4-fold concentrated substrate+4-fold concentrated ATP in 3-fold concentrated reaction buffer to each well of assay plate • 2) Add 10 μl […] concentrated inhibitor in 4% DMSO in H2O to each well except to C− and C+ wells (starting point: final inhibitor concentration 10 μM; IC50 determination based on dilution series) • 3) Add 10 μl 4% DMSO in H2O to C− and C+ wells • 4) Add 10 μl 500 mM EDTA in H2O to C− wells • 5) Add 10 μl 50 μCi/ml adenosine 5′-[γ-^33P]triphosphate in H2O to each well • 6) Add 10 μl […] concentrated kinase in Reaction Buffer to each well • 7) Incubate 1 hr at room temperature • 8) Add 10 μl 50 mM EDTA in H2O to each well except to C− wells • 9) Prepare MAPH plates by adding 200 μl 0.75% H3PO4 to each well • 10) Exhaust 0.75% H3PO4 using Millipore vacuum station • 11) Add 60 μl 0.75% H3PO4 to each well of MAPH filter plate • 12) Transfer 30 μl sample per well from assay plate to corresponding well of MAPH filter plate • 13) Incubate 30 min at room temperature • 14) Wash each well of MAPH filter plates 3× with 200 μl 0.75% H3PO4 using Millipore vacuum station • 15) Add 20 μl scintillation liquid to each well of MAPH filter plate • 16) Seal MAPH filter plate • 17) Store MAPH filter plate 30 min in darkness • 18) Quantify radioactivity using scintillation counter (MicroBeta, Perkin-Elmer)
Reaction Volume: 8.0108 μl
IMAP Incubation Time: 60 min
Assay Plate: 384 well U bottom, PP, black, low volume (Corning, 3676)
Compound Plate: 384 well U bottom, PS (Falcon, 3995)
IMAP Binding Buffer A: Molecular Devices, R7282
IMAP Binding Buffer B: Molecular Devices, R7283
IMAP Binding Reagent: Molecular Devices, R7207
Negative Control (C−): no kinase, no inhibitor
Reation buffer: 20 mM Hepes, pH 7.5 • 1 mM DTT • 10 mM MnCl2 • 0.01% Brij35
Kinase: Kinase conc. yielding 50% substrate turnover as determined in titration experiment • c-Raf (Upstate 14-352)
Substrate: 5F1-SGQLIDSMANSFV-NH2 400 nM (jpt Peptide Technologies GmbH, Berlin, Germany)
IMAP Binding Solution: 75% IMAP Binding Buffer A • 25% IMAP Binding Buffer B • IMAP Binding Reagent 1:800
Pipetting Sequence: • 1) Add 6 μl 1.33-fold concentrated substrate+1.33-fold concentrated ATP in 1-fold concentrated reaction buffer to each well of assay plate • 2) Add 10.8 nl 740-fold concentrated inhibitor in 100% DMSO to each well except to C− and C+ wells using pintool (CyBio, Jena, Germany) (starting point: final inhibitor concentration 10 μM; IC50 determination based on dilution series) • 3) Add 10.8 nl 100% DMSO to C− and C+ wells using pintool • 4) Add 2 μl reaction buffer to C− wells • 5) Add 2 μl 4-fold concentrated kinase in reaction buffer to each well except C− wells • 6) Incubate according to reaction time at room temperature • 7) Add 15 μl IMAP binding solution to each well • 8) Incubate according to IMAP incubation time at room temperature • 9) Measure fluorescence polarization (Analyst GT, Molecular Devices)

The test system of a further assay is HT-29 tumor cells. Nature of the assay: Anti-proliferative activity, SRB assay. The conditions noted are these: Homo sapiens, HT-29, 72 h, 72 hours exposure, read-out: CELLULAR IC50 HT-29. It is filed as cell-based, human. Summed up:
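Cells at 3,000-15,000/well, plated 24 h before compound, exposed to a concentration range for 72 hours. Proliferation measured by SRB staining after cold TCA fixation, absorbance at OD570; IC50 estimated from % inhibition versus DMSO-treated cells.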
Background: Sulforhodamine B stains cellular protein and so reports cell mass.

In the next assay the target is B-Raf delta1-415 (Homo sapiens, UniProt P15056). Nature of the assay: B-Raf kinase inhibition (MAPH filter plate, 33P-ATP, MEK1 substrate). The conditions noted are these: read-out: Biochemical IC50 B-Raf. The method in brief: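 Radiometric filter-binding assay with B-Raf delta1-415 at a level giving 50% turnover, MEK1 substrate and 33P-ATP (12.5 μCi/ml) in 20 mM Mops pH 7.0 with Mg/Mn, 1 h at room temperature. Inhibitor dilution series from 10 μM; EDTA-stopped reactions captured on phosphocellulose filters, counted by scintillation for IC50.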
B-Raf delta1-415, sequence (P15056 416-766): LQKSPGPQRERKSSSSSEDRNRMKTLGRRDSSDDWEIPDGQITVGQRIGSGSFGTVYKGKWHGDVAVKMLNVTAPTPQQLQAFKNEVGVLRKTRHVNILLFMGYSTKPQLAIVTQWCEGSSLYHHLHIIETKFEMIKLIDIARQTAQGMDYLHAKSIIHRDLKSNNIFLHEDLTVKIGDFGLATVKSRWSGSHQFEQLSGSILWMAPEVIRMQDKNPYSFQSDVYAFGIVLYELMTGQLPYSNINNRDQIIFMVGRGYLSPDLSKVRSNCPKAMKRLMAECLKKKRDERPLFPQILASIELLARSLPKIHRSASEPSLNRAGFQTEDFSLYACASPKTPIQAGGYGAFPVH

C-Raf Raf-1 (truncated), active, sequence (P04049 306-648 Y340D/Y341D): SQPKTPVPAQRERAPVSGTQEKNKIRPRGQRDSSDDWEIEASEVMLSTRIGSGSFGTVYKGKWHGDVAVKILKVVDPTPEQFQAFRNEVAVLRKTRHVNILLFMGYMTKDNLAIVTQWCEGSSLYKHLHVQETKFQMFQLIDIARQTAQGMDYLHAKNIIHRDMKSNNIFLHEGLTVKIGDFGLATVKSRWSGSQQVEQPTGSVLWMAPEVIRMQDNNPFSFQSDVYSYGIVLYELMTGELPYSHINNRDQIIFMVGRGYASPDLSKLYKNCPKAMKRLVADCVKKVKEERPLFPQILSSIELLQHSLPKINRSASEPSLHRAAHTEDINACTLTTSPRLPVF

For orientation: IC50 means the concentration needed to halve the response being measured. In the case of `NCCCCCOn1c(=O)c(-c2c(Cl)cccc2Cl)cc2cnc(Nc3ccccc3)nc21` [Compound 56, 8-(5-Aminopentyl)oxy-6-(2,6-dichlorophenyl)-2-phenylamino-pyrido[2,3-d]pyrimidin-7-one], the concentration for half-maximal inhibition (IC50) in assay [1] is less than 100 nM; with HT-29 tumor cells it was less than 1000 nM; at B-Raf delta1-415 it was less than 500 nM.

Take `CNCCOn1c(=O)c(-c2c(Cl)cccc2Cl)cc2cnc(Nc3cccc(OC)c3)nc21` [Compound 74, 6-(2,6-Dichlorophenyl)-8-(2-methylaminoethyl)oxy-2-(3-methoxyphenyl)amino-pyrido[2,3-d]pyrimidin-7-one]: the IC50 is less than 500 nM in assay [1], less than 1000 nM with HT-29 tumor cells and less than 100 nM on B-Raf delta1-415.

As for `CN1CCN(c2ccc(Nc3ncc4cc(-c5c(F)cccc5Cl)c(=O)n(OCC5CC5)c4n3)cc2)CC1` [Compound 52, 6-(2-Chloro-6-fluorophenyl)-8-cyclopropylmethoxy-2-(4-(4-methylpiperazino)-phenylamino)-pyrido[2,3-d]pyrimidin-7-one], the results for the IC50 (in assay [1]; with HT-29 tumor cells; at B-Raf delta1-415) were less than 100 nM, less than 1000 nM and less than 100 nM, respectively.

As to `COn1c(=O)c(-c2c(Cl)cccc2Cl)cc2cnc(Nc3cc(C(=O)NCCN(C)C)n(C)c3)nc21` [Compound 67, 6-(2,6-Dichlorophenyl)-2-(5-(2-dimethylaminoethyl)aminocarbonyl-1-methyl-pyrrol-3-yl)-amino-8-methoxy-pyrido[2,3-d]pyrimidin-7-one], the IC50 in assay [1] was less than 100 nM; in the assay on HT-29 tumor cells, less than 1000 nM; on B-Raf delta1-415 it was less than 100 nM.

`NCCCOn1c(=O)c(-c2c(Cl)cccc2Cl)cc2cnc(Nc3ccccc3)nc21` [Compound 55, 8-(3-Aminopropyl)oxy-6-(2,6-dichlorophenyl)-2-phenylamino-pyrido[2,3-d]pyrimidin-7-one]: the IC50 in assay [1] is less than 500 nM; with HT-29 tumor cells, less than 1000 nM; on B-Raf delta1-415, less than 500 nM.

Turning to `COc1ccc(OC)c(-c2cc3cnc(Nc4cccc(CO)c4)nc3n(OC)c2=O)c1` [Compound 44, 6-(2,5-Dimethoxyphenyl)-2-(3-hydroxymethylphenylamino)-8-methoxy-pyrido[2,3-d]pyrimidin-7-one], the figures for the concentration for half-maximal inhibition (IC50) (in assay [1]; with HT-29 tumor cells; on B-Raf delta1-415) were less than 100 nM, more than 10000 nM and less than 5000 nM, respectively.

As for `COn1c(=O)c(-c2c(Cl)cccc2Cl)cc2cnc(Nc3cc(CO)ccc3F)nc21` [Compound 27, 6-(2,6-Dichlorophenyl)-2-(2-fluoro-5-(hydroxymethyl)phenylamino)-8-methoxy-pyrido[2,3-d]pyrimidin-7-one], the IC50 in assay [1] was less than 100 nM; with HT-29 tumor cells it was less than 10000 nM; on B-Raf delta1-415, more than 1000 nM.

With `COc1cccc(Nc2ncc3cc(-c4c(Cl)cccc4Cl)c(=O)n(OCCCN)c3n2)c1` [Compound 71, 8-(3-Aminopropyl)oxy-6-(2,6-dichlorophenyl)-2-(3-methoxyphenyl)amino-pyrido[2,3-d]pyrimidin-7-one], the IC50 is less than 100 nM in assay [1], less than 1000 nM in the assay on HT-29 tumor cells and less than 100 nM at B-Raf delta1-415.

With `COCCNc1ncc2cc(-c3cc(NC(=O)c4ccccc4)ccc3Cl)c(=O)n(OC)c2n1` [Compound 33], the concentration for half-maximal inhibition (IC50) is less than 100 nM in assay [1], less than 10000 nM in the assay with HT-29 tumor cells and less than 500 nM on B-Raf delta1-415.

For the compound `COn1c(=O)c(-c2cc(NC(C)=O)ccc2Cl)cc2cnc(Nc3ccccc3)nc21` [Compound 59], the IC50 in assay [1] was less than 100 nM; with HT-29 tumor cells, less than 10000 nM; at B-Raf delta1-415, less than 500 nM.

As for `COn1c(=O)c(-c2c(F)cccc2Cl)cc2cnc(Nc3cccc(CO)c3)nc21` [Compound 15, 6-(2-Chloro-6-fluorophenyl)-8-methoxy-2-(3-hydroxymethylphenylamino)-pyrido[2,3-d]pyrimidin-7-one], the IC50 in assay [1] is less than 100 nM; in the assay on HT-29 tumor cells it was less than 1000 nM; on B-Raf delta1-415, less than 100 nM.

For `NCCOCCOn1c(=O)c(-c2c(Cl)cccc2Cl)cc2cnc(Nc3ccccc3)nc21` [Compound 58, 8-(2-(2-Aminoethyloxy)ethyl)oxy-6-(2,6-dichlorophenyl)-2-phenylamino-pyrido[2,3-d]pyrimidin-7-one], the half-maximal inhibitory concentration (IC50) in assay [1] was less than 500 nM; with HT-29 tumor cells, less than 1000 nM; at B-Raf delta1-415 it was less than 500 nM.

As to `COc1cccc(Nc2ncc3cc(-c4c(Cl)cccc4Cl)c(=O)n(OCCO)c3n2)c1` [Compound 73, 6-(2,6-Dichlorophenyl)-8-(2-hydroxyethyl)oxy-2-(3-methoxyphenyl)amino-pyrido[2,3-d]pyrimidin-7-one], the IC50 in assay [1] is less than 100 nM; in the assay with HT-29 tumor cells, less than 1000 nM; at B-Raf delta1-415 it was less than 100 nM.

For the compound `COc1ccc(OC)c(-c2cc3cnc(Nc4ccccc4)nc3n(OC)c2=O)c1` [Compound 60], the IC50 in assay [1] was less than 500 nM; in the assay on HT-29 tumor cells, less than 10000 nM; at B-Raf delta1-415, less than 10000 nM.

`COCCOn1c(=O)c(-c2ccccc2Cl)cc2cnc(Nc3ccccc3)nc21` [Compound 20]: the figures for the IC50 (in assay [1]; in the assay with HT-29 tumor cells; at B-Raf delta1-415) were less than 100 nM, less than 1000 nM and less than 500 nM, respectively.

Consider `COn1c(=O)c(-c2c(Cl)cccc2Cl)cc2cnc(Nc3ccc(N4CCN(C)CC4)cc3)nc21` [Compound 14, 6-(2,6-Dichlorophenyl)-8-methoxy-2-(4-(4-methylpiperazino)-phenylamino)-pyrido[2,3-d]pyrimidin-7-one], for which the IC50 in assay [1] was less than 100 nM; in the assay on HT-29 tumor cells it was less than 1000 nM; on B-Raf delta1-415 it was less than 100 nM.

As for `COn1c(=O)c(-c2ccc(Cl)c(Cl)c2)cc2cnc(Nc3ccc(N4CCN(C)CC4)cc3)nc21` [Compound 18, 6-(3,4-Dichlorophenyl)-8-methoxy-2-(4-(4-methylpiperazino)-phenylamino)-pyrido[2,3-d]pyrimidin-7-one], the half-maximal inhibitory concentration (IC50) in assay [1] was less than 1000 nM; in the assay on HT-29 tumor cells, less than 10000 nM; at B-Raf delta1-415, less than 1000 nM.

For `COn1c(=O)c(-c2cccc(NC(C)=O)c2)cc2cnc(Nc3ccccc3)nc21` [Compound 62], the IC50 was less than 100 nM in assay [1], less than 10000 nM with HT-29 tumor cells and less than 10000 nM at B-Raf delta1-415.

With `COn1c(=O)c(-c2c(Cl)cccc2Cl)cc2cnc(Nc3ccc(OCCN(C)C)cc3)nc21` [Compound 24, 6-(2,6-Dichlorophenyl)-8-methoxy-2-(4-(2-dimethylaminoethoxy)-phenylamino)-pyrido[2,3-d]pyrimidin-7-one], the half-inhibitory concentration (IC50) in assay [1] was less than 100 nM; in the assay with HT-29 tumor cells, less than 1000 nM; at B-Raf delta1-415, less than 100 nM.
